Patent US20190153051A1, “FUSION PROTEIN OF C2 DOMAIN AND AKT KINASE DOMAIN FRAGMENT AND USE THEREOF” (Gachon University of Industry-Academic Cooperation …, priority 2017, published 2019)

Key:
[1] = system: Akt protein; test: Western blotting of Akt protein phosphorylation in insulin-treated HepG2 cells; type: cell-based, human; conditions: HepG2, PA 24 hours, 100 nM insulin; compared with insulin alone
Procedure: First, male C57BL/6 mice at 8 weeks were divided into the fasted group wherein the mice were fasted for 16 hours and the refed group wherein the mice were fasted for 16 hours and then fed for 4 hours. Each group was sub-divided into the high fat diet group (HFD) and the normal diet group (chow). The liver cells were extracted from the raised mice by the same manner and under the same conditions as described in Example 1. The extracted liver cells were lysed in a lysis buffer containing phosphatase (Sigma-Aldrich, USA) and protease inhibitor (Sigma-Aldrich, USA). Proteins extracted from 2 to 3 mg of the liver tissue were homogenized by using a tissue homogenizer (TissuLyser, Qiagen, USA) for 1.5 minutes at a frequency of 1/30 sec. The homogenized lysate was centrifuged at 12,000 rpm for 15 minutes and the supernatant was obtained. The amount of the extracted protein was quantified by using a protein assay kit (Bio-Rad Laboratories, USA), and at this time BSA was used as a standard sample. 3 mg of the protein was mixed with 6× loading buffer, followed by electrophoresis using 10% SDS-PAGE gel. The electrophoresed protein was transferred onto a polyvinylidene fluoride (PVDF) membrane by using a transfer buffer at 4° C. with 120 V for 1.5 hours. The PVDF membrane on which the protein was transferred was pretreated with a blocking buffer prepared by mixing 5% skim milk with TBS buffer (TBS-T, pH 7.6) supplemented with Tween 20 for 30 minutes, and the membrane was washed with TBS-T. The washed membrane was added with the antibody against Akt (Cell Signaling Technology, USA), Akt(T308) (Cell Signaling Technology, USA), Akt(S473) (Cell Signaling Technology, USA), FOXO3A (Cell Signaling Technology, USA), FOXO3A(S253) (Cell Signaling Technology, USA), GSK-3β (Cell Signaling Technology, USA) or GSK-3β(S9) (Cell Signaling Technology, USA) protein as a primary antibody, followed by reaction at 4° C. for 12 hours. At this time, the antibody against actin (Santa Cruz Biotechnology, USA) protein was used for the control group. Upon completion of the reaction, the secondary antibody corresponding to the primary antibody was added thereto, followed by reaction at room temperature for 30 minutes. The PVDF membrane was washed with TBS-T buffer three times. The washed PVDF membrane was added with ECL solution (Thermo Scientific, USA), followed by image observation.
To investigate the changes in insulin sensitivity when insulin was added to the fatty liver cell model constructed in vitro, the phosphorylations of those proteins that were involved in insulin signaling mechanism were examined. PA was added to the human HepG2 cells prepared in Example 3, followed by reaction for 24 hours. […]

[2] = system: human HepG2 cells; test: Intracellular calcium dynamics with Fura-2 AM in insulin resistance induced cells; type: cell-based
Procedure: First, human HepG2 cells were cultured in DMEM (Dulbecco's Modified Eagle Medium) supplemented with 10% fetal bovine serum (FBS), 25 mM glucose, 2 mM L-glutamine, 100 U/Ml of penicillin and 100 μg/Ml of streptomycin. At this time, the culture was performed in a 37° C., 5% CO2 incubator. The cultured cells were distributed in a culture plate at the density of 5.0×10^5 cells/well, followed by further culture for overnight. Palmitic acid (PA) was added to the plate at the concentration of 0, 100, 300 or 500 μM, followed by reaction for 24 hours. Then, the concentration of calcium was investigated by using Fluo-3 AM according to the same conditions and procedures as described in Example 1, and the results are shown in FIG. 2A and FIG. 2B. Intracellular calcium dynamics was confirmed in the fatty liver cell model constructed in vitro by inducing insulin resistance. At this time, the experiment was performed by the same manner under the same conditions as described in Example 3 except that Fura-2 AM was used instead of Fluo-3 AM.

[3] = system: human HepG2 cells; test: Intracellular calcium level with Fluo-3 AM in PA-treated HepG2 cells; type: cell-based; conditions: PA 0, 100, 300 or 500 μM, 24 hours
Procedure: First, male C57BL/6 mice at 8 weeks (Orient Bio, Korea) were raised in an animal facility of Lee Gil Ya Cancer and Diabetes Institute (Gachon University, Korea). Particularly, the mice were raised in a sterile chamber at the temperature of 23±1° C., with 12 hr/12 hr light/dark cycle, and free dietary environment. At this time, the mice were divided into the fasted group wherein the mice were fasted for 16 hours and the refed group wherein the mice were fasted for 16 hours and then fed for 4 hours. Each group was sub-divided into the high fat diet group (HFD) and the normal diet group (chow). The high fat diet group (HFD) mice were fed with diet containing 60% fat, while the normal diet group (chow) mice were fed with diet containing 10% fat. 8 weeks later, the mice were anesthetized and the liver was perfused by using buffer 1 (142 mM NaCl, 6.7 mM KCl, 10 mM HEPES and 2.5 mM EGTA, pH 7.4). Buffer 1 above was replaced with buffer 2 (0.5 mg/Me collagen, 66.7 mM NaCl, 6.7 mM KCl, 10 mM HEPES and 4.8 mM CaCl, pH 7.6), and then the perfused liver was extracted. The extracted liver was washed and degraded by using Percoll cushion gradient. The degraded cells were suspended and cultured in Hepatozyme-SFM (Gibco-BRL, USA) culture medium supplemented with 10% FBS and 1% antibiotics and antifungal agent. […] The mounted cells were analyzed using a fluorescence microscope (Zeiss Axioplan 2). […]

With `CCCCCCCCCCCCCCCC(=O)O` [PA, Palmitic acid] the Akt protein phosphorylation [1] was “significantly inhibited”, the intracellular calcium concentration [2] was “significantly increased” and the “concentration of calcium in the cytoplasm” value [3] was “increased”.
